Results as given in article PMC5986797, “Laminin heparin-binding peptides bind to several growth factors and enhance diabetic wound healing” (Nature Communications, 2018).

Test system: full-thickness back-skin wounds in db/db mice
Test: Retention of VEGF-A165 at the wound site
Assay type: in vivo, mouse
Conditions: 3 days after treatment, fibrin matrix with 200 ng/wound VEGF-A165 and 2 µM peptide vs without peptide, ELISA
Description: Ten C57BLKS/J-m/Lepr db (db/db) mice (The Jackson laboratory) aged 10–11 weeks were used. Their backs were shaved and four full-thickness punch-biopsy wounds (6 mm in diameter) were created in each mouse. Directly after, fibrin matrices [80 µL in total, fibrinogen (10 mg/mL), 2 U/mL human thrombin, 4 U/mL factor XIII, 5 mM calcium chloride, 2 µM α2PI1–8-LAMA3_3043–3067, and 200 ng of recombinant human VEGF-A165] were polymerized on the wounds. To avoid drying of the matrices, the wounds were covered with non-adhering dressing (Adaptic, Johnson&Johnson), and then with adhesive film dressing (Hydrofilm, Hartmann). After 3 or 6 days, mice were sacrificed. The wounds were punched again, in order to recover the fibrinous matrices. Moreover, the tissue surrounding the wounds (2 mm beyond the wound margin) was removed. The tissue was transferred in 0.9 mL of tissue T-PER Tissue Protein Extraction Reagent (Thermo Scientific) containing 1 mg/mL of collagenase IV (Sigma-Aldrich), and homogenized with a tissue homogenizer. […] Recombinant human VEGF-A165 remaining in the fibrinous matrix and in the tissue surrounding the wound was quantified by ELISA (DuoSet, R&D Systems), using 200 ng of recombinant human VEGF-A165 as 100%. […]

amount of VEGF-A165 remaining in the wounds: significantly enhanced
Sequence: NQEQVSPLRLVFALGTDGKKLRIKSKEKCNDGK [α2PI1–8-LAMA3_3043–3067]
